What all share (type): cell-based
The subject of test [1] is some strains of gram-negative bacteria carrying R factor Staphylococcus aureus and Pseudomonas aeruginosa. As to the kind of experiment: resistance of strains isolated from patients.
Test [2] concerns Escherichia coli LA290 R55. Briefly: MIC by serial dilution method on nutrient agar. The note with it: LA290R55. As for the experimental part:
(§1) The minimum inhibitory concentrations (MIC) of 1-AHB-6'-MKM and 1-AHB-6'-EKM against various micro-organisms were determined by the serial dilution method using a nutrient agar medium at 37° C.

Test [3] deals with Staphylococcus aureus FDA209P. Briefly: MIC by serial dilution method on nutrient agar. The note with it: 37° C. The procedure:
as §1

The test system of test [4] is Klebsiella pneumoniae PCI 602. Briefly: MIC by serial dilution method on nutrient agar. The note with it: PCI602, 37° C. As for the experimental part: as §1
Test [5] has as its system Pseudomonas aeruginosa No. 12. Briefly: MIC by serial dilution method on nutrient agar. The note with it: 37° C. The procedure: as §1
The next test relates to Escherichia coli K-12 R5. As to the kind of experiment: MIC by serial dilution method on nutrient agar. The note with it: K12R5. As for the experimental part: as §1
Test [6] deals with Escherichia coli JR66/W677. As to the kind of experiment: MIC by serial dilution method on nutrient agar. The note with it: for MIC: nutrient agar, 37° C. The procedure: as §1
A further test deals with Escherichia coli W677. As to the kind of experiment: MIC by serial dilution method on nutrient agar. The note with it: 37° C. As for the experimental part:
as §1

For test [7], the system named is Escherichia coli K-12 ML1629. Briefly: MIC by serial dilution method on nutrient agar. The settings on record: for MIC: K12ML1629, nutrient agar, 37° C. The procedure:
as §1

Test [8] has as its system Pseudomonas aeruginosa TI-13. Briefly: MIC by serial dilution method on nutrient agar. The settings on record: for MIC: TI13, nutrient agar, 37° C. The procedure:
as §1

Test [9] concerns Escherichia coli LA290 R56. Briefly: MIC by serial dilution method on nutrient agar. The settings on record: LA290R56. As for the experimental part:
as §1

In test [10] the test system is Klebsiella pneumoniae 22#3038. Briefly: MIC by serial dilution method on nutrient agar. The settings on record: for MIC: nutrient agar, 37° C. The procedure: as §1
The next test has as its system Escherichia coli K-12. As to the kind of experiment: MIC by serial dilution method on nutrient agar. The settings on record: K12, 37° C. As for the experimental part: as §1
Test [11] relates to Escherichia coli K-12 ML1410. Briefly: MIC by serial dilution method on nutrient agar. The note with it: K12ML1410, 37° C. The procedure: as §1
Test [12] relates to Pseudomonas aeruginosa A3. As to the kind of experiment: MIC by serial dilution method on nutrient agar. The note with it: 37° C. As for the experimental part: as §1
For test [13], the system named is Escherichia coli K-12 ML1630. Briefly: MIC by serial dilution method on nutrient agar. The note with it: for MIC: K12ML1630, nutrient agar, 37° C. As for the experimental part:
as §1

Test [14] has as its system Escherichia coli LA290 R64. Briefly: MIC by serial dilution method on nutrient agar. The note with it: LA290R64. The procedure: as §1
In test [15] the test system is Pseudomonas aeruginosa 99. As to the kind of experiment: MIC by serial dilution method on nutrient agar. The settings on record: 37° C. The procedure: as §1
Test [16] concerns Pseudomonas aeruginosa GN315. Briefly: MIC by serial dilution method on nutrient agar. The note with it: for MIC: nutrient agar, 37° C. As for the experimental part: as §1
Test [17] concerns Mycobacterium smegmatis ATCC607. Briefly: MIC by serial dilution method on nutrient agar. The note with it: Mycolicibacterium smegmatis, 37° C. As for the experimental part:
as §1

Converted amounts (≈) assume the structure as drawn.

In general, MIC refers to the least concentration at which growth counts as inhibited.

On to `NC[C@H]1O[C@H](O[C@H]2[C@H](O)[C@@H](O[C@H]3O[C@H](CO)[C@@H](O)[C@H](N)[C@H]3O)[C@H](N)C[C@@H]2N)[C@H](O)[C@@H](O)[C@@H]1O` [kanamycin], for which the resistance of strains entry in test [1] was “resistant”.
With `CNC[C@H]1O[C@H](O[C@H]2[C@H](O)[C@@H](O[C@H]3O[C@H](CO)[C@@H](O)[C@H](N)[C@H]3O)[C@H](NC(=O)[C@@H](O)CCN)C[C@@H]2N)[C@H](O)[C@@H](O)[C@@H]1O` [1-AHB-6'-MKM, 1-N-(L-4-amino-2-hydroxybutyryl)-6'-N-methylkanamycin], the MIC in test [2] stood at 1.56 µg/mL (≈ 2.6 µM); in [3], 0.78 µg/mL (≈ 1.3 µM); in test [4], 0.78 µg/mL (≈ 1.3 µM); in test [5] it was 3.12 µg/mL (≈ 5.2 µM); in the test with Escherichia coli K-12 R5, 0.78 µg/mL (≈ 1.3 µM); in test [6], 6.25 µg/mL (≈ 10.4 µM). The MIC with Escherichia coli W677 was 1.56 µg/mL (≈ 2.6 µM); in [7] it was 0.78 µg/mL (≈ 1.3 µM); in [8], 12.5 µg/mL (≈ 20.8 µM); in [9], 0.78 µg/mL (≈ 1.3 µM); in [10], 6.25 µg/mL (≈ 10.4 µM); in the test on Escherichia coli K-12, 0.39 µg/mL (≈ 0.65 µM). Besides, the minimal inhibitory concentration (MIC) in [11] was 1.56 µg/mL (≈ 2.6 µM); in test [12], 6.25 µg/mL (≈ 10.4 µM); in [13], 1.56 µg/mL (≈ 2.6 µM); in test [14], 0.78 µg/mL (≈ 1.3 µM); in test [15], 12.5 µg/mL (≈ 20.8 µM); in [16] it was 50 µg/mL (≈ 83.4 µM). In [17], this compound yielded a minimal inhibitory concentration (MIC) of 0.39 µg/mL (≈ 0.65 µM).
In the case of `CCNC[C@H]1O[C@H](O[C@H]2[C@H](O)[C@@H](O[C@H]3O[C@H](CO)[C@@H](O)[C@H](N)[C@H]3O)[C@H](NC(=O)[C@@H](O)CCN)C[C@@H]2N)[C@H](O)[C@@H](O)[C@@H]1O` [1-AHB-6'-EKM, 1-N-(L-4-amino-2-hydroxybutyryl)-6'-N-ethylkanamycin], the MIC in test [2] is 3.12 µg/mL (≈ 5.08 µM); in test [3] it was 1.56 µg/mL (≈ 2.54 µM); in test [4], 1.56 µg/mL (≈ 2.54 µM); in [5] it was 25 µg/mL (≈ 40.7 µM); against Escherichia coli K-12 R5, 1.56 µg/mL (≈ 2.54 µM); in test [6], 25 µg/mL (≈ 40.7 µM). The MIC with Escherichia coli W677 worked out at 1.56 µg/mL (≈ 2.54 µM); in test [7], 3.12 µg/mL (≈ 5.08 µM); in test [8], 50 µg/mL (≈ 81.5 µM); in test [9], 1.56 µg/mL (≈ 2.54 µM); in test [10] it was 25 µg/mL (≈ 40.7 µM); against Escherichia coli K-12, 1.56 µg/mL (≈ 2.54 µM). Further, the MIC in test [11] is 3.12 µg/mL (≈ 5.08 µM); in [12] it was 25 µg/mL (≈ 40.7 µM); in test [13] it was 6.25 µg/mL (≈ 10.2 µM); in [14], 1.56 µg/mL (≈ 2.54 µM); in test [15], 100 µg/mL (≈ 163 µM); in test [16], 100 µg/mL (≈ 163 µM). Also, in test [17], the minimal inhibitory concentration (MIC) turned out to be 3.12 µg/mL (≈ 5.08 µM).
Consider `CNC[C@H]1O[C@H](O[C@H]2[C@H](O)[C@@H](O[C@H]3O[C@H](CO)[C@@H](O)[C@H](N)[C@H]3O)[C@H](N)C[C@@H]2N)[C@H](O)[C@@H](O)[C@@H]1O` [6'-N-methylkanamycin, reference compound], for which the “inhibition of kanamycin-resistant strain” value in test [6], in [7], in [8], in test [10], in test [13] and in test [16] was “does not inhibit” in each case.

These data come from patent US4170642A, “Derivatives of kanamycin A” (Zaidan Hojin Biseibutsu Kagaku Kenkyu Kai, priority 1974, dated 1979).
